Test results as given in patent publication US10227346B2, “Methyl- and trifluoromethyl-substituted pyrrolopyridine modulators of RORC2 and methods of use therof” (Pfizer Inc., priority 2014, dated 2019).
pIC50: −log10 of the molar value.

What follows are molecules tested on IL-17 production from human Th17 cells (assay: IL-17 production from human Th17 cells). Conditions: IL-17A in supernatant by ELISA after 6 days, human CD4+ T cells under Th17 differentiation.
Type: cell-based
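Also: purified human CD4+ T cells activated with anti-CD3 plus anti-CD28 and a Th17-inducing cytokine cocktail, with compound at serial concentrations versus no compound.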

First: Cc1c(NC(=O)c2cccc(C#N)c2)cnc2c1c([C@@H]1CCN(C(=O)C(C)C3CC3)C[C@@H]1C)cn2C (stereo partly drawn) [Example 86, 3-cyano-N-(3-((3R,4R)-1-(2-cyclopropylpropanoyl)-3-methylpiperidin-4-yl)-1,4-dimethyl-1H-pyrrolo[2,3-b]pyridin-5-yl)benzamide]
Second: Cc1c(NC(=O)c2cccc(C#N)c2)cnc2c1c(C1CCN(C(=O)[C@H](C)C3CCCC3)CC1)cn2C [Example 51, (R)-3-cyano-N-(3-(1-(2-cyclopentylpropanoyl)piperidin-4-yl)-1,4-dimethyl-1H-pyrrolo[2,3-b]pyridin-5-yl)benzamide]
The pIC50 of the first is 0.73 log units lower: 7.46 for the first, 8.19 for the second.

Compared with `Cn1cc([C@@H]2CCN(C(=O)C3CCCC3)C(C)(C)C2)c2c(C(F)(F)F)c(NC(=O)c3cccc(C#N)c3)cnc21` [Example 65, (R)-3-cyano-N-(3-(1-(cyclopentanecarbonyl)-2,2-dimethylpiperidin-4-yl)-1-methyl-4-(trifluoromethyl)-1H-pyrrolo[2,3-b]pyridin-5-yl)benzamide], `Cn1cc(C2CCN(C(=O)CC3CCCCC3)CC2)c2c(C(F)(F)F)c(NC(=O)c3cccc(C#N)c3)cnc21` [Example 20, 3-cyano-N-(3-(1-(2-cyclohexylacetyl)piperidin-4-yl)-1-methyl-4-(trifluoromethyl)-1H-pyrrolo[2,3-b]pyridin-5-yl)benzamide] is 0.24 log units lower in pIC50: 7.97 for the first, 7.73 for the second.

Compared with `Cc1c(NC(=O)c2cccc(C#N)c2)cnc2c1c(C1CCN(C(=O)CC(C)C)CC1)cn2C` [Example 109, 3-cyano-N-(1,4-dimethyl-3-(1-(3-methylbutanoyl)piperidin-4-yl)-1H-pyrrolo[2,3-b]pyridin-5-yl)benzamide], `Cc1c(NC(=O)c2cccc(C#N)c2)cnc2c1c(C1CCN(C(=O)[C@H](C)C(C)C)CC1)cn2C` [Example 37, (R)-3-cyano-N-(3-(1-(2,3-dimethylbutanoyl)piperidin-4-yl)-1,4-dimethyl-1H-pyrrolo[2,3-b]pyridin-5-yl)benzamide] is 0.55 log units higher in pIC50: 7.49 for the first, 8.04 for the second.

`CC(C(=O)N1CCC(c2cn(C)c3ncc(NC(=O)c4cccc(C#N)c4)c(C(F)(F)F)c23)CC1)C1CC1` (racemic) [Example 25, Rac-3-cyano-N-(3-(1-(2-cyclopropylpropanoyl)piperidin-4-yl)-1-methyl-4-(trifluoromethyl)-1H-pyrrolo[2,3-b]pyridin-5-yl)benzamide] and `Cn1cc(C2CCN(C(=O)CC3CC3)CC2)c2c(C(F)(F)F)c(NC(=O)c3cccc(C#N)c3)cnc21` [Example 24, 3-cyano-N-(3-(1-(2-cyclopropylacetyl)piperidin-4-yl)-1-methyl-4-(trifluoromethyl)-1H-pyrrolo[2,3-b]pyridin-5-yl)benzamide] are within 0.2 log units of each other in pIC50: 7.85 for the first, 7.76 for the second.

`COc1ccc(C(=O)Nc2cnc3c(c(C4CCN(C(=O)C(C)C)CC4)cn3C)c2C(F)(F)F)cc1Cl` [Example 10, 3-chloro-N-(3-(1-isobutyrylpiperidin-4-yl)-1-methyl-4-(trifluoromethyl)-1H-pyrrolo[2,3-b]pyridin-5-yl)-4-methoxybenzamide] and `CC(C)C(=O)N1CCC(c2cn(C)c3ncc(NC(=O)c4ccc(F)c(Cl)c4)c(C(F)(F)F)c23)CC1` [Example 12, 3-chloro-4-fluoro-N-(3-(1-isobutyrylpiperidin-4-yl)-1-methyl-4-(trifluoromethyl)-1H-pyrrolo[2,3-b]pyridin-5-yl)benzamide] are within 0.2 log units of each other in pIC50: 7.29 for the first, 7.24 for the second.

`Cn1cc(C2CCN(C(=O)[C@H]3C[C@H]4CCCC[C@H]4C3)CC2)c2c(C(F)(F)F)c(NC(=O)c3cccc(C#N)c3)cnc21` [Example 16, 3-cyano-N-(1-methyl-3-(1-((2r,3aR,7aS)-octahydro-1H-indene-2-carbonyl)piperidin-4-yl)-4-(trifluoromethyl)-1H-pyrrolo[2,3-b]pyridin-5-yl)benzamide] and `Cn1cc(C2CCN(C(=O)[C@@H]3CCCS3)CC2)c2c(C(F)(F)F)c(NC(=O)c3cccc(C#N)c3)cnc21` (single isomer, unassigned) [Example 29] are within 0.2 log units of each other in pIC50: 7.97 for the first, 8.07 for the second.

First: Cc1c(NC(=O)c2cccc(C#N)c2)cnc2c1c(C1CCN(C(=O)[C@@H]3CCC[C@@H]3C(C)C)CC1)cn2C (single isomer, unassigned) [Example 48]
Second: Cc1c(NC(=O)c2cccc(C#N)c2)cnc2c1c(C1CCN(C(=O)[C@@H]3CCC[C@H]3C)CC1)cn2C (single isomer, unassigned) [Example 47]
The pIC50 of the first is 0.21 log units lower: 7.87 for the first, 8.08 for the second. The second is the more potent here.

Compared with `Cc1c(NC(=O)c2cccc(C#N)c2)cnc2c1c([C@@H]1CCN(C(=O)C[C@@H](O)C(F)(F)F)C(C)(C)C1)cn2C` [Example 73, 3-cyano-N-(3-((R)-2,2-dimethyl-1-((R)-4,4,4-trifluoro-3-hydroxybutanoyl)piperidin-4-yl)-1,4-dimethyl-1H-pyrrolo[2,3-b]pyridin-5-yl)benzamide], `Cc1c(NC(=O)c2cccc(C#N)c2)cnc2c1c([C@@H]1CCN(C(=O)CC3CCC3)C(C)(C)C1)cn2C` [Example 76, (R)-3-cyano-N-(3-(1-(2-cyclobutylacetyl)-2,2-dimethylpiperidin-4-yl)-1,4-dimethyl-1H-pyrrolo[2,3-b]pyridin-5-yl)benzamide] is 0.70 log units higher in pIC50: 7.60 for the first, 8.30 for the second. The second is the more potent here.

Going from `COc1cc(Cl)cc(C(=O)Nc2cnc3c(c([C@@H]4CCN(C(=O)C5CCCC5)C(C)(C)C4)cn3C)c2C)c1` [Example 63, (R)-3-chloro-N-(3-(1-(cyclopentane-carbonyl)-2,2-dimethylpiperidin-4-yl)-1,4-dimethyl-1H-pyrrolo[2,3-b]pyridin-5-yl)-5-methoxybenzamide] to `Cc1c(NC(=O)c2ccc(F)c(C#N)c2)cnc2c1c([C@@H]1CCN(C(=O)C3CCCC3)C(C)(C)C1)cn2C` [Example 61, (R)-3-cyano-N-(3-(1-(cyclopentanecarbonyl)-2,2-dimethylpiperidin-4-yl)-1,4-dimethyl-1H-pyrrolo[2,3-b]pyridin-5-yl)-4-fluorobenzamide], the pIC50 falls from 7.92 to 7.59 (0.33 log units). The first is the more potent here.

First: CC(C)C(=O)N1CC[C@@H](c2cn(C)c3ncc(NC(=O)c4cccc(C#N)c4F)c(C(F)(F)F)c23)[C@@H](C)C1 [Example 82, 3-cyano-2-fluoro-N-(3-((3R,4R)-1-isobutyryl-3-methylpiperidin-4-yl)-1-methyl-4-(trifluoromethyl)-1H-pyrrolo[2,3-b]pyridin-5-yl)benzamide]
Second: CC(C)C(=O)N1CCC(c2cn(C)c3ncc(NC(=O)c4ccc(F)c(C#N)c4)c(C(F)(F)F)c23)CC1 [Example 9, 3-cyano-4-fluoro-N-(3-(1-isobutyrylpiperidin-4-yl)-1-methyl-4-(trifluoromethyl)-1H-pyrrolo[2,3-b]pyridin-5-yl)benzamide]
The pIC50 of the first is 0.68 log units higher: 8.24 for the first, 7.56 for the second.

Going from `Cn1cc(C2CCN(C(=O)CC3CCC3)CC2)c2c(C(F)(F)F)c(NC(=O)c3cccc(C#N)c3)cnc21` [Example 18, 3-cyano-N-(3-(1-(2-cyclobutylacetyl)piperidin-4-yl)-1-methyl-4-(trifluoromethyl)-1H-pyrrolo[2,3-b]pyridin-5-yl)benzamide] to `Cn1cc(C2CCN(C(=O)C3CCCC3)CC2)c2c(C(F)(F)F)c(NC(=O)c3ccc(F)c(C#N)c3)cnc21` [Example 3, 3-cyano-N-(3-(1-(cyclopentanecarbonyl)piperidin-4-yl)-1-methyl-4-(trifluoromethyl)-1H-pyrrolo[2,3-b]pyridin-5-yl)-4-fluorobenzamide], the pIC50 falls from 7.97 to 7.41 (0.56 log units). The first is the more potent here.

Going from `Cc1c(NC(=O)c2cccc(C#N)c2)cnc2c1c(C1CCN(C(=O)c3cccc4c3CCC4)CC1)cn2C` [Example 34, 3-cyano-N-(3-(1-(2,3-dihydro-1H-indene-4-carbonyl)piperidin-4-yl)-1,4-dimethyl-1H-pyrrolo[2,3-b]pyridin-5-yl)benzamide] to `Cc1c(NC(=O)c2cccc(C#N)c2)cnc2c1c(C1CCN(C(=O)[C@H]3CCC[C@@H]3C)CC1)cn2C` (single isomer, unassigned) [Example 46], the pIC50 falls from 8.02 to 7.24 (0.78 log units).

Going from `Cc1c(NC(=O)c2cccc(C#N)c2)cnc2c1c([C@@H]1CCN(C(=O)C(C)C)[C@@H](C)C1)cn2C` [Example 113, 3-cyano-N-(3-((2S,4R)-1-isobutyryl-2-methylpiperidin-4-yl)-1,4-dimethyl-1H-pyrrolo[2,3-b]pyridin-5-yl)benzamide] to `Cc1c(NC(=O)c2cccc(C#N)c2)cnc2c1c(C1CCN(C(=O)[C@H](C)C34CC(C3)C4)CC1)cn2C` [Example 50, (R)—N-(3-(1-(2-(bicyclo[1.1.1]pentan-1-yl)propanoyl)piperidin-4-yl)-1,4-dimethyl-1H-pyrrolo[2,3-b]pyridin-5-yl)-3-cyanobenzamide], the pIC50 rises from 7.53 to 8.47 (0.94 log units).

Going from `CC(C)C(=O)N1C[C@H]2CC[C@@H](C1)[C@@H]2c1cn(C)c2ncc(NC(=O)c3cccc(C#N)c3)c(C(F)(F)F)c12` [Example 77, 3-cyano-N-(3-((1R,5S,8r)-3-isobutyryl-3-azabicyclo[3.2.1]octan-8-yl)-1-methyl-4-(trifluoromethyl)-1H-pyrrolo[2,3-b]pyridin-5-yl)benzamide] to `COc1cc(Cl)cc(C(=O)Nc2cnc3c(c(C4CCN(C(=O)C(C)C)CC4)cn3C)c2C(F)(F)F)c1` [Example 13, 3-chloro-N-(3-(1-isobutyrylpiperidin-4-yl)-1-methyl-4-(trifluoromethyl)-1H-pyrrolo[2,3-b]pyridin-5-yl)-5-methoxybenzamide], the pIC50 falls from 8.05 to 7.31 (0.74 log units).

`Cc1c(NC(=O)c2cc(O)cc(C#N)c2)cnc2c1c(C1CCN(C(=O)[C@H](C)C(C)(C)C)CC1)cn2C` [Example 56, (R)-3-cyano-N-(1,4-dimethyl-3-(1-(2,3,3-trimethylbutanoyl)piperidin-4-yl)-1H-pyrrolo[2,3-b]pyridin-5-yl)-5-hydroxybenzamide] and `C[C@@H](C(=O)N1CCC(c2cn(C)c3ncc(NC(=O)c4cc(O)cc(C#N)c4)c(C(F)(F)F)c23)CC1)C(C)(C)C` [Example 54, (R)-3-cyano-5-hydroxy-N-(1-methyl-4-(trifluoromethyl)-3-(1-(2,3,3-trimethylbutanoyl)piperidin-4-yl)-1H-pyrrolo [2,3-b]pyridin-5-yl)benzamide] are within 0.2 log units of each other in pIC50: 8.31 for the first, 8.30 for the second.

Work on `COc1cc(Cl)cc(C(=O)Nc2cnc3c(c(C4CCN(C(=O)[C@H](C)C(C)(C)C)CC4)cn3C)c2C)c1` [Example 42, (R)-3-chloro-N-(1,4-dimethyl-3-(1-(2,3,3-trimethylbutanoyl)piperidin-4-yl)-1H-pyrrolo[2,3-b]pyridin-5-yl)-5-methoxybenzamide] yielded a pIC50 of 7.50.
